Measurements taken from EP4324928A1, “SYNTHETIC REAGENTS FOR ENZYME-CATALYSED ALKYLATION” (priority 2022, dated 2024).
Numbering of substitutions follows the chain as printed. Where a name gives a salt, the structure may show the parent alone.

How the values were obtained:
AtHMT = target: T1, AtHMT (Arabidopsis thaliana, UniProt Q0WP12); experiment: Time-dependent methylation of SAH by HMT using dimethyl sulfate with or without sodium iodide (HPLC); type: biochemical; conditions: 1 mM SAH, 2 mM DMSa; efficient SAM production required 10 mM Nal
T1 construct: made in house; host or cells: E. coli Δmtn (DE3)
T1 sequence (Q0WP12 1-227): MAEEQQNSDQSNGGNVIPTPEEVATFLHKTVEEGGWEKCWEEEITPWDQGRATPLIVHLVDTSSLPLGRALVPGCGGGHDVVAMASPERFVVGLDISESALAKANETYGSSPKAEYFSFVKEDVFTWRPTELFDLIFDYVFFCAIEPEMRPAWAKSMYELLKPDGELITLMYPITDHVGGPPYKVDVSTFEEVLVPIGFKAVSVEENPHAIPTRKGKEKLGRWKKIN
Experimental: (§4) The given values are averages of three independent measurements. The associated error is less than 30 % of the average value. […] In addition, the reactions contained 50 mM sodium phosphate buffer (pH 8.0) and were incubated at 25 °C. The concentration of SAM was determined by HPLC. A) with 10 µM BxHMT; B) with 10 µM AtHMT. […] The concentration of SAM was determined by HPLC; B) Initial rates of these reactions were estimated from the slopes of linear-fit curves of the points at 1, 2 and 4 minutes.

bra = experiment: TPMT panel screen: SAM production from SAH with methyl donor (HPLC); type: biochemical, Brassica rapa chinensis; conditions: 2 mM DMSa, 1 mM SAH, 10 µM TPMT, 50 mM phosphate buffer pH 8.0, 25°C; barely exceeds uncatalyzed background
Excerpt: (§1) The inventors are not aware of any reports on SAM-dependent methyltransferases that transfer methyl groups from or to sulfates or sulfonates.^[18] […] To test this idea, the inventors assayed a panel of 13 distantly related TPMT homologs for the ability to produce SAM from SAH using DMSa, methyl methanesulfonate (MMSa), methyl toluenesulfonate (MeOTs) or methyl 4-nitrobenzenesulfonate (MeONs) as methyl donor. The proteins were produced in E. coli and purified following standard procedures . The activity of the enzymes was assayed in reactions containing 1 mM SAH, 50 mM phosphate buffer pH 8.0 and 2 mM of either methyl donor. The concentration of SAM after different incubation times (0.5- 24 h) was quantified by HPLC. […] In a nutshell, enzymes that have evolved to catalyze specific physiological reactions may have acquired - by chance - considerable activities for reactions they were never optimized for, while others - from the same enzyme family and with the same physiological function - may have not.

BxHMT = experiment: Time-dependent methylation of SAH by HMT using dimethyl sulfate with or without sodium iodide (HPLC); type: biochemical, Paraburkholderia xenovorans; conditions: 1 mM SAH, 2 mM DMSa, 0.1, 1.0 or 10 mM Nal (same efficiency without Nal), 50 mM phosphate buffer pH 8, within two hours
Experimental: as §4

bma = target: T2, bma (Batis maritima, UniProt Q9ZSZ7); experiment: TPMT panel screen: SAM production from SAH with methyl donor (HPLC); type: biochemical; conditions: 2 mM DMSa, 1 mM SAH, 10 µM TPMT, 50 mM phosphate buffer pH 8.0, 25°C; barely exceeds uncatalyzed background
T2 construct: Leu-Glu-His6 (C); made in house; host or cells: E. coli Δmtn (DE3)
T2 sequence (Q9ZSZ7 1-230): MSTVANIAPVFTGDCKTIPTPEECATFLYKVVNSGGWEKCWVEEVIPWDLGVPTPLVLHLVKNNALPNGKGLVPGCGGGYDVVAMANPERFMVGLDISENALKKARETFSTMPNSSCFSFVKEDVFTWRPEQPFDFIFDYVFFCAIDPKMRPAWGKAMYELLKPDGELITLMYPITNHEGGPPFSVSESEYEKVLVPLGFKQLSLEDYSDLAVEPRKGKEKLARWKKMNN
Excerpt: as §1

acl = experiment: as above; type: biochemical, Aspergillus clavatus; conditions: 2 mM DMSa, 1 mM SAH, 10 µM TPMT, 50 mM phosphate buffer pH 8.0, 25°C; complete conversion within 0.5 h
Excerpt: as §1

nba = experiment: as above; type: biochemical, Nitrospinae bacterium; conditions: 2 mM DMSa, 1 mM SAH, 10 µM TPMT, 50 mM phosphate buffer pH 8.0, 25°C; barely exceeds uncatalyzed background
Excerpt: as §1

msm = experiment: as above; type: biochemical, Mycolicibacterium smegmatis; conditions: 2 mM DMSa, 1 mM SAH, 10 µM TPMT, 50 mM phosphate buffer pH 8.0, 25°C; barely exceeds uncatalyzed background
Excerpt: as §1

mac = experiment: as above; type: biochemical, Methanosarcina Acetivorans; conditions: 2 mM DMSa, 1 mM SAH, 10 µM TPMT, 50 mM phosphate buffer pH 8.0, 25°C; barely exceeds uncatalyzed background
Excerpt: as §1

[1] = Stability test of methyl donors in phosphate buffer (1H NMR, hydrolysis and phosphorolysis); conditions: pH 8.4
Experimental: These solutions were monitored by ^1H NMR at time points between 0.5 to 24 hours to quantify the products of hydrolysis and phosphorolysis. The ^1H NMR signal peaks of all methyl species were integrated and the ratio of them was calculated. The percentage of methyl donor was plotted against time and the graph was fitted with exponential decay model to calculate the half-life of the methyl donor.

dba = experiment: TPMT panel screen: SAM production from SAH with methyl donor (HPLC); type: biochemical, Dehalococcoidia bacterium; conditions: 2 mM DMSa, 1 mM SAH, 10 µM TPMT, 50 mM phosphate buffer pH 8.0, 25°C; barely exceeds uncatalyzed background
Excerpt: as §1

dsq = experiment: as above; type: biochemical, Dichomitus squalens; conditions: 2 mM DMSa, 1 mM SAH, 10 µM TPMT, 50 mM phosphate buffer pH 8.0, 25°C; complete conversion within 0.5 h
Excerpt: as §1

monoamine oxidase = conditions: background statement; cited from earlier work
AtHMTV140A = target: T3, AtHMTV140A (Arabidopsis thaliana, UniProt Q0WP12, V140A); experiment: Time-dependent methylation of SAH with methyl iodide, initial rates, mutant versus AtHMT (HPLC); type: biochemical; conditions: 1 µM enzyme, 1 mM SAH, 2 mM Mel, 50 mM sodium phosphate buffer pH 8.0, 25 °C
T3 construct: made in house; host or cells: E. coli Δmtn (DE3)
T3 sequence (Q0WP12 1-227 V140A): T1 sequence (Q0WP12 1-227) with V140A

AtHMT Val140 to Thr = target: T4, AtHMT Val140 to Thr (Arabidopsis thaliana, UniProt Q0WP12, V140T); conditions: previous study; cited from earlier work
T4 sequence (Q0WP12 1-227 V140T): T1 sequence (Q0WP12 1-227) with V140T

[2] = rats; cited from earlier work
TPMT acl = experiment: TPMT-catalyzed SAH methylation using dimethyl sulfite as methyl group donor (HPLC); type: biochemical, Aspergillus clavatus; conditions: after 20-hour incubation
Excerpt: (§2) Dimethyl sulfite (Me2SO3) is used as an additive in some polymers to prevent oxidation. It is much less toxic than dimethyl sulfate and can be considered as a potential methyl group donor. Herein, the inventors performed SAH methylation with dimethyl sulfite (Figure 9).

TBU = experiment: as above; type: biochemical; conditions: after 20-hour incubation
Excerpt: as §2

TPMT uma = experiment: as above; type: biochemical, Ustilago maydis; conditions: after 20-hour incubation
Excerpt: as §2

physchem = type: physicochemical; conditions: buffer, pH 8
Experimental: Ethylene sulfate (C2H4SO4) is a two carbon-unit cyclic sulfate. The inventors also used ethylene sulfate to perform SAH alkylation (Figure 7). A new peak with retention time at 15.7 minutes could be detected by HPLC in the reactions with about half number of TPMTs, although the new peak has not been identified as the desired product. If the new peak is the target product, especially for TPMT kal, 37% of SAH was converted to SAM analog after 4-hour incubation. For TPMT CAK and ath_V140A, they also got over 20% yield of SAM analog. In my opinion, the inactivation of TPMT during the reaction was not the reason of relatively low yield of SAM analog. […] During the reaction, most of ethylene sulfate hydrolyzed so that there was not enough ethylene sulfate to alkylate SAH.

ath_V140A = target: T5, ath_V140A (Arabidopsis thaliana, UniProt Q0WP12, V140A); experiment: TPMT-catalyzed SAH alkylation using ethylene sulfate as alkyl group donor (HPLC); type: biochemical; conditions: new HPLC peak not identified as the desired product
T5 construct: made in house; host or cells: E. coli Δmtn (DE3)
T5 sequence (Q0WP12 1-227 V140A): T1 sequence (Q0WP12 1-227) with V140A
Excerpt: (§3) Ethylene sulfate (C2H4SO4) is a two carbon-unit cyclic sulfate. The inventors also used ethylene sulfate to perform SAH alkylation (Figure 7).

TPMT CAK = experiment: as above; type: biochemical; conditions: new HPLC peak not identified as the desired product
Excerpt: as §3

TPMT kal = experiment: as above; type: biochemical, Kordia algicida
Excerpt: as §3

For `COS(=O)(=O)OC` [DMSa, dimethyl sulfate], the “acceptance of DMSa as substrate” value (AtHMT) was “not a direct substrate”, the rate (bra) was less than 0.01 min⁻¹ and the “SAH converted to SAM” value (BxHMT) was 60 - 70%. For the same molecule, the rate (bma) was less than 0.01 min⁻¹, the rate (acl) was greater than 3 turnover min^-1 and the rate (nba) was less than 0.01 min⁻¹. The rate (msm) was less than 0.01 min⁻¹, the rate (mac) was less than 0.01 min⁻¹ and the half-life ([1]; buffer) was 58.2 ± 3 min. The half-life [1] was 57 ± 4.2 min, the rate (dba) was less than 0.01 min⁻¹ and the rate (dsq) was greater than 3 turnover min^-1.

In the case of `C[C@H](NCc1ccc(OCc2cccc(F)c2)cc1)C(N)=O` [safinamide], the “increased potency by addition of a single methyl group” value (monoamine oxidase) is listed as 20 fold and the “increased selectivity by addition of a single methyl group” value (monoamine oxidase) is listed as roughly 1000 fold.

`COS(=O)(=O)c1ccc([N+](=O)[O-])cc1` [MeONs, methyl 4-nitrobenzenesulfonate] gave a half-life ([1]; buffer) of 180 ± 6 min.

`COS(C)(=O)=O` [MMSa, methyl methanesulfonate] showed a half-life ([1]; buffer) of 2040 ± 60 min and a half-life [1] of 1680 ± 240 min.

For `CI` [Mel, methyl iodide], the “activity for Mel diminished (Val140 to Ala versus AtHMT)” value (AtHMTV140A) is listed as 7 fold, the “catalytic efficiency for Mel reduced (Val140 to Thr)” value (AtHMT Val140 to Thr) is listed as 6 fold and the LD50 [2] is listed as 76 mg/kg.

For `COS(=O)(=O)c1ccc(C)cc1` [MeOTs, methyl 4-toluenesulfonate], the half-life ([1]; buffer) was 1560 ± 60 min and the half-life [1] was 1260 ± 180 min.

For `COS(=O)OC` [dimethyl sulfite, Dimethyl sulfite], the “yield of SAM” value (TPMT acl) was 14%, the “yield of SAM” value (TBU) was 7% and the “yield of SAM” value (TPMT uma) was 8%.

For `O=S1(=O)OCCO1` [ethylene sulfate, Ethylene sulfate], the half-life (physchem) was 11 min, the “yield of SAM analog” value (ath_V140A) was “over 20%” and the “yield of SAM analog” value (TPMT CAK) was “over 20%”. For the same molecule, the “yield of SAM analog” value (TPMT kal; 1 mM SAH, 1 mM ethylene sulfate added every half an hour, after 3-hour incubation) was 60% and the “SAH converted to SAM analog” value (TPMT kal; ethylene sulfate as donor, after 4-hour incubation, new HPLC peak not identified as the desired product) was 37%.
